Results reported in patent EP0933027A1, “Methods and compositions for protecting animals and humans against attack and infestation by arthropod and helminth parasites” (American Cyanamid Company, priority 1998, dated 1999).
Read-outs that look alike come from different tables or passages of the source.

How the values were obtained:
[1] = test system: ovine Trichstrongylus colubriformis larvae; assay: Systemic activity against helminth larvae in infected Mongolian gerbils (medicated diet); type: in vivo; conditions: 500 ppm in feed; medicated diet for 3 days from ten days post infection; nematode burdens treated versus non-treated
Procedure: This test is designed to evaluate the systemic activity of test compounds against helminth parasites. Mongolian gerbils are infected orally with ovine Trichstrongylus colubrifomis larvae. Ten days post infection, the gerbils are treated with test compounds by diet incorporation. After feeding on the medicated diet for 3 days, the gerbils are sacrificed and gastrointestinal nematode populations are counted. Efficacy is determined by statistical analyses of treated versus non-treated nematode burdens.

Ctenocephalides felis = assay: Contact activity against adult cat flea, with and without piperonyl butoxide
Procedure: This test is designed to evaluate the contact activity of test compounds against the adult cat flea. Test compounds are dissolved in 100% acetone to 300, 100, 10 and 1 ppm. 100 µL of each of these dilutions is added to the bottom of a 20 mL glass scintillation vial with a pipettor. The vial is allowed to dry under a fume hood for 15 minutes. The bottom of the vial measures 4.909 cm^2. The amount of test compound applied by each dilution equals 6.2, 2.0, 0.2 and 0.02 µg/cm^2, respectively. Newly emerged adult cat fleas are anesthetized with CO2 to immobilize, and are counted into the scintillation vials with forceps. Five fleas are placed in each vial. These tests are done in replicates of two or three so that there are 10 to 15 fleas per rate/compound. Mortality readings are taken 4 and 24 hours after placing the fleas in the vials. […] Percent mortality is then calculated for each treatment.
This test evaluates the synergistic effect of piperonyl butoxide on the formula I compounds of this invention. Piperonyl butoxide (PBO) is added in an amount of 1.5% to a 1,000 ppm solution of a test compound in acetone. Dilutions are then made with acetone to provide solutions containing 300, 100, 10 and 1 ppm of the test compound and 0.45%, 0.15%, 0.015% and 0.0015% piperonyl butoxide, respectively. Solutions containing 1,000, 300, 100, 10 and 1 ppm of the test compound alone are used as the control. The evaluations are conducted according to the procedure described in Example 1.

Dermacentor variabilis = assay: Contact activity against larval American dog tick (coated vial)
Procedure: This test is designed to evaluate the contact activity of test compounds against the American dog tick. Test compounds are dissolved in 100% acetone to 1000, 300, 100, 10, 1 and 0.1 ppm. 100 µL of each of these dilutions is added to the bottom of a 20 mL glass scintillation vial with a pipettor. The vial is allowed to dry under a fume hood for 15 minutes. The vial is then turned in its side, and 250 µL of each dilution is applied to the sides of the vial. The vial is placed on a rolling machine and allowed to roll under the hood, coating the sides of the vial, until the acetone completely evaporates. The bottom of the vial measures 4.909 cm^2 and the sides measure 4.5 cm high x 8.8 cm around, so that the total coated area of the scintillation vial measures 44.51 cm^2. The amount of test compound applied by each dilution equals 7.86, 2.36, 0.79, 0.079, 0.0079 and 0.00079 µg/cm^2, respectively. Unfed larval dog ticks are counted into the scintillation vials with a slightly damp paintbrush. Ten ticks are placed in each vial. These tests are done in replicates of two or three so that there are 20 to 30 ticks per rate/compound. Mortality readings are taken 4 and 24 hours after placing the ticks in the vials. To read the test, the vial is placed under a magnifying glass and tapped gently. […] Percent mortality is then calculated for each treatment.

Bovicola spp. = assay: Coated vial test against adult biting louse; conditions: for mortality at 2 µg/cm2: dose 2.0 µg/cm^2; for mortality at 6.1 µg/cm2: dose 6.1 µg/cm^2
Procedure: This test is designed to evaluate the activity of test compounds against the biting louse. Test compounds are dissolved in 100% acetone to 300, 100 and 10 ppm. 100 µL of each of these dilutions is added to the bottom of a 20 mL glass scintillation vial with a pipettor. The vial is allowed to dry under a fume hood for 15 minutes. The bottom of the vial measures 4.909 cm^2. The amount of test compound applied by each dilution equals 6.1, 2.0 and 0.2 µg/cm^2, respectively. Included in all tests are two to three replications of untreated vials. Lice are collected from the host animal and are used within 4 hours. The lice are counted into the scintillation vials with a slightly damp paintbrush. Five adult lice are placed in each vial. These tests are done in replicates of two or three so that there are 10 to 15 lice per rate/compound. Mortality readings are taken at 2 and 4 hours after placing the lice in the vials. To read the test, the vial is placed under a magnifying glass. […] Percent mortality is then calculated for each treatment.

[2] = 4 h, read-out: 4 Hour % Mortality
[3] = 24 h, read-out: 24 Hour % Mortality
[4] = 2 hours, read-out: 2 Hour % Mortality
[5] = 4 hours, read-out: 4 Hour % Mortality

F/C(=C\Cc1ccc(F)c(Oc2ccccc2)c1)C(c1ccc(Cl)cc1)C1CC1 (stereo not shown) [Compound 5, 1-[1-(p-Chlorophenyl)-2-fluoro-4-(4-fluoro-3-phenoxyphenyl)-2-butenyl]cyclopropane, (Z)-]
% Efficacy [1]: 46%
mortality at 0.02 µg/cm2 (Ctenocephalides felis; 4 h, dose 0.02 µg/cm^2, 0.0 % PBO (test compound alone), 4 hours, read-out: 4 Hour % Mortality): 0%
mortality at 0.02 µg/cm2 (Ctenocephalides felis; 4 h, dose 0.02 µg/cm^2, 0.0015 % PBO in composition, 4 hours, read-out: 4 Hour % Mortality): 0%
mortality at 0.2 µg/cm2 (Ctenocephalides felis; 4 h, dose 0.2 µg/cm^2, 0.0 % PBO (test compound alone), 4 hours, read-out: 4 Hour % Mortality): 20%
mortality at 0.2 µg/cm2 (Ctenocephalides felis; 4 h, dose 0.2 µg/cm^2, 0.015 % PBO in composition, 4 hours, read-out: 4 Hour % Mortality): 40%
mortality at 2 µg/cm2 (Ctenocephalides felis; 4 h, dose 2.0 µg/cm^2, 0.0 % PBO (test compound alone), 4 hours, read-out: 4 Hour % Mortality): 30%
mortality at 2 µg/cm2 (Ctenocephalides felis; 4 h, dose 2.0 µg/cm^2, 0.15 % PBO in composition, 4 hours, read-out: 4 Hour % Mortality): 20%
mortality at 6.2 µg/cm2 (Ctenocephalides felis; 4 h, dose 6.2 µg/cm^2, 0.0 % PBO (test compound alone), 4 hours, read-out: 4 Hour % Mortality): 30%
mortality at 6.2 µg/cm2 (Ctenocephalides felis; 4 h, dose 6.2 µg/cm^2, 0.45 % PBO in composition, 4 hours, read-out: 4 Hour % Mortality): 20%
mortality at 20 µg/cm2 (Ctenocephalides felis; 4 h, dose 20.0 µg/cm^2, 0.0 % PBO (test compound alone), 4 hours, read-out: 4 Hour % Mortality): 100%
mortality at 20 µg/cm2 (Ctenocephalides felis; 4 h, dose 20.0 µg/cm^2, 1.50 % PBO in composition, 4 hours, read-out: 4 Hour % Mortality): 100%
mortality at 0.02 µg/cm2 (Ctenocephalides felis; 24 h, dose 0.02 µg/cm^2, 0.0 % PBO (test compound alone), 24 hours, read-out: 24 Hour % Mortality): 10%
mortality at 0.02 µg/cm2 (Ctenocephalides felis; 24 h, dose 0.02 µg/cm^2, 0.0015 % PBO in composition, 24 hours, read-out: 24 Hour % Mortality): 70%
mortality at 0.2 µg/cm2 (Ctenocephalides felis; 24 h, dose 0.2 µg/cm^2, 0.0 % PBO (test compound alone), 24 hours, read-out: 24 Hour % Mortality): 20%
mortality at 0.2 µg/cm2 (Ctenocephalides felis; 24 h, dose 0.2 µg/cm^2, 0.015 % PBO in composition, 24 hours, read-out: 24 Hour % Mortality): 100%
mortality at 2 µg/cm2 (Ctenocephalides felis; 24 h, dose 2.0 µg/cm^2, 0.0 % PBO (test compound alone), 24 hours, read-out: 24 Hour % Mortality): 100%
mortality at 2 µg/cm2 (Ctenocephalides felis; 24 h, dose 2.0 µg/cm^2, 0.15 % PBO in composition, 24 hours, read-out: 24 Hour % Mortality): 100%
mortality at 6.2 µg/cm2 (Ctenocephalides felis; 24 h, dose 6.2 µg/cm^2, 0.0 % PBO (test compound alone), 24 hours, read-out: 24 Hour % Mortality): 100%
mortality at 6.2 µg/cm2 (Ctenocephalides felis; 24 h, dose 6.2 µg/cm^2, 0.45 % PBO in composition, 24 hours, read-out: 24 Hour % Mortality): 100%
mortality at 20 µg/cm2 (Ctenocephalides felis; 24 h, dose 20.0 µg/cm^2, 0.0 % PBO (test compound alone), 24 hours, read-out: 24 Hour % Mortality): 100%
mortality at 20 µg/cm2 (Ctenocephalides felis; 24 h, dose 20.0 µg/cm^2, 1.50 % PBO in composition, 24 hours, read-out: 24 Hour % Mortality): 100%
mortality at 0.00079 µg/cm2 (Dermacentor variabilis; [2]): 100%
mortality at 0.0079 µg/cm2 (Dermacentor variabilis; [2]): 100%
mortality at 0.079 µg/cm2 (Dermacentor variabilis; [2]): 100%
mortality at 0.79 µg/cm2 (Dermacentor variabilis; [2]): 100%
mortality at 2.36 µg/cm2 (Dermacentor variabilis; [2]): 100%
mortality at 7.86 µg/cm2 (Dermacentor variabilis; [2]): 100%
mortality at 0.00079 µg/cm2 (Dermacentor variabilis; [3]): 100%
mortality at 0.0079 µg/cm2 (Dermacentor variabilis; [3]): 100%
mortality at 0.079 µg/cm2 (Dermacentor variabilis; [3]): 100%
mortality at 0.79 µg/cm2 (Dermacentor variabilis; [3]): 100%
mortality at 2.36 µg/cm2 (Dermacentor variabilis; [3]): 100%
mortality at 7.86 µg/cm2 (Dermacentor variabilis; [3]): 100%
mortality at 2 µg/cm2 (Bovicola spp.; [4]): 92%
mortality at 2 µg/cm2 (Bovicola spp.; [5]): 100%
mortality at 6.1 µg/cm2 (Bovicola spp.; [4]): 100%
mortality at 6.1 µg/cm2 (Bovicola spp.; [5]): 100%
